Assay results as given in paper PMC10874388, “Cyclic peptides discriminate BCL-2 and its clinical mutants from BCL-XL by engaging a single-residue discrepancy” (Nature Communications, 2024).
“And” between values parts separate entries of the source, which are not always exact repeats. Identical values can stand only once. Values belong to the compound of their own block, whether it stands above or below them.

Tests used:
BCL-XL = target: T1, BCL-XL (Homo sapiens, UniProt Q07817, DEL27-81); assay: SPR binding assay, BCL-XL; conditions: affinity fitting, mean ± SD of three independent experiments, 25 °C
T1 construct: human BCL-XL (residues 1–210, with 27–81 and 210–233 removed); vector-borne tag of pET-22b (Ni-NTA purification implies a His tag); made in house; host or cells: E. coli BL21 (DE3)
Source text: The DNA fragments encoding human BCL-XL ([…], with […] removed), BCL-w (residues 6–152), MCL-1 (residues 152–308) and BFL-1 (residues 1–151) as previously reported[18] were cloned into a pET-22b vector (Invitrogen), respectively. A chimeric human BCL-2 (including residues 1–50 and 92–207) was constructed, by removing the internal long loop (residues 51–91) and replacing its residues 35–50 with residues 33–48 of BCL-XL to solubilize the protein[14], and then it was cloned into a pET28a-Sumo vector (Invitrogen). All BCL-2 mutants (G101V, F104L, Y103D, D111A) were generated by mutagenic PCR, according to the QuikChange (Stratagene) protocol.
SPR assays were performed using a Biacore T200 instrument in running buffer consisting 10 mM PBS, 50 μM EDTA and 0.05% Tween-20 at 25 °C. Biotinylated proteins were immobilized on a CAP sensor chip (Cytiva, 28920234). […] The binding affinities were quantified by the Biacore evaluation software using 1:1 binding model. The reproducibility of the assays was confirmed by performing replicate determinations.

PANC-1 cells = assay: Cell viability assay (CellTiter-Glo), PANC-1; assay type: cell-based; conditions: PNAC-1; for inhibition rate: fraction; for inhibition rate / raw viability reading: replicates
Method: (§1) The cell lines Jurkat (TIB-152), El4 (TIB-39), Daudi (ccl-213), RS4:11 (crl-1873), A549 (ccl-185), HepG2 (hb-8065) and PANC-1 (crl-1469) were purchased from ATCC (American Type Culture Collection), and MGC-803 (C6582) was purchased from Beyotime (https://www.beyotime.com/product/C6582.htm). […] Daudi and RS4:11 cells were cultured in RPMI-1640 medium (HyClone, SH30809.01) and 10% FBS (Gibco, 10099-141), whereas HepG2, MGC-803 and PANC-1 cells were cultured in MDEM (HyClone, SH30243.01). Cells were maintained at 37 °C under a humidified, 5% (v/v) CO2-containing atmosphere.
(§2) Cell viability was measured using CellTiter-Glo® 2.0 Reagent (Promega, G9242). […] After different inhibitors were added into serum-free medium and cultured for 4 h (RS4:11 for 6 h), FBS were supplemented to 10% and then incubated totally for 24 h or 48 h. Finally, the IC50 values were calculated based on measurements using a microplate reader (Thermo, Varioskan LUX). Statistical analysis was performed using software GraphPad Prism 7.0.
(§3) Supplementary Figure 10 Functional mechanism of CPs. a. IC50 values of venetoclax against A549, MGC-803 and PANC-1 cells, measured after 48 h treatment by a CellTiter-Glo assay and calculated using Prism 7.0 by a nonlinear-fit method. Data are presented as mean ± s.d.; n= 6 biological replicates. b. […]
(§4) Glo assay. Each data point represents the mean ± s.d. for 6 biological replicates.
(§5) Supplementary Figure 11 IC50 values of different inhibitors against different cell lines. a-d. Viability of A549 (a), HepG2 (b), MGC-803 (c) and PANC-1 (d) cells treated with various concentrations of ABT-199 (venetoclax), and measured after 48 h by a CellTiter-Glo assay. e, f. Viability of Jurkat cells (e) and Daudi cells (f) treated with […]
(§6) after 48 h by a CellTiter-Glo assay. Each data point represents the mean ± s.d. for 6 biological replicates.
(§7) (1 picture or pasted object on this page, not shown here)

MGC-803 cells = assay: Cell viability assay (CellTiter-Glo), MGC-803; assay type: cell-based; conditions: for inhibition rate: fraction; for inhibition rate / raw viability reading: replicates
Method: as §1, §2, §3, §4, §5, §6, §7

Jurkat cells = assay: Mitochondrial membrane potential (JC-1), flow cytometry and fluorescence microscopy; assay type: cell-based; conditions: Jurkat
Method: For the mitochondrial membrane potential (ΔΨm) analysis, the mitochondrial membrane potential assay kit with JC-1 dye (Beyotime, C2006) was used according to the manufacturer’s protocol. […] The value of ΔΨm was expressed as the ratio of red fluorescence intensity over green fluorescence intensity. After treated with JC-1, fluorescence intensity of Jurkat cells was tested by flow cytometry (BD FACSAria Fusion) and fluorescence microscopy (NIKON Ti-E), respectively. All experiments were performed in triplicate. Statistical analysis was performed using software GraphPad Prism 7.0.

El4 cells = assay: Cell viability assay (CellTiter-Glo), El4; assay type: cell-based; conditions: Mus musculus, 48 h treatment, NO = no inhibition detected
Method: as §1, §2

T1 sequence (Q07817 with tags, fused parts or gaps DEL27-81): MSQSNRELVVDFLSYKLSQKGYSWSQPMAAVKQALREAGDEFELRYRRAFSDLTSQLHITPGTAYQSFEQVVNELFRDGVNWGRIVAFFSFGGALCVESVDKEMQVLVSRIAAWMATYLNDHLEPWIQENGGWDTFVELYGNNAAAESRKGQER

- Kd (BCL-XL): 175 ± 42 nM
SMILES: O=C(c1cc(-c2cc3c(cc2C(=O)N2Cc4ccccc4C[C@H]2CN2CCOCC2)OCO3)n2c1CCCC2)N(c1ccccc1)c1ccc(O)cc1 [S55746]

SMILES: CC1(C)CCC(CN2CCN(c3ccc(C(=O)NS(=O)(=O)c4ccc(NCC5CCOCC5)c([N+](=O)[O-])c4)c(Oc4cnc5[nH]ccc5c4)c3)CC2)=C(c2ccc(Cl)cc2)C1 [venetoclax]
- average (raw viability reading) (PANC-1 cells; ABT199 0.625 uM): 745567
- inhibition rate (PANC-1 cells; ABT199 0.625 uM): -0.00675 and 0.06232 and 0.04686 and 0.01357 and 0.002949
- raw viability reading (PANC-1 cells; ABT199 0.625 uM): 768100 and 715400 and 727200 and 752600 and 760700 and 749400
- average (raw viability reading) (PANC-1 cells; ABT199 1.25 uM): 742283
- inhibition rate (PANC-1 cells; ABT199 1.25 uM): 0.02549 and 0.03519 and 0.03296 and 0.02484 and -0.003211 and 0.04725
- raw viability reading (PANC-1 cells; ABT199 1.25 uM): 743500 and 736100 and 737800 and 744000 and 765400 and 726900
- average (raw viability reading) (PANC-1 cells; ABT199 2.5 uM): 777083
- inhibition rate (PANC-1 cells; ABT199 2.5 uM): -0.04175 and 0.01278 and 0.00793 and -0.01999 and -0.04882 and -0.0213
- raw viability reading (PANC-1 cells; ABT199 2.5 uM): 794800 and 753200 and 756900 and 778200 and 800200 and 779200
- average (raw viability reading) (PANC-1 cells; ABT199 5 uM): 562150
- inhibition rate (PANC-1 cells; ABT199 5 uM): 0.3097 and 0.2596 and 0.2661 and 0.2453 and 0.2389
- raw viability reading (PANC-1 cells; ABT199 5 uM): 526700 and 564900 and 559900 and 575800 and 580700
- average (raw viability reading) (PANC-1 cells; ABT199 10 uM): 446683
- inhibition rate (PANC-1 cells; ABT199 10 uM): 0.4023 and 0.4323 and 0.4298 and 0.4149 and 0.4042 and 0.4036
- raw viability reading (PANC-1 cells; ABT199 10 uM): 456000 and 433100 and 435000 and 446400 and 454600 and 455000
- average (raw viability reading) (PANC-1 cells; ABT199 20 uM): 384133
- inhibition rate (PANC-1 cells; ABT199 20 uM): 0.5271 and 0.5025 and 0.4945 and 0.4865 and 0.4715 and 0.4971
- raw viability reading (PANC-1 cells; ABT199 20 uM): 360800 and 379600 and 385700 and 391800 and 403200 and 383700
- average (raw viability reading) (MGC-803 cells; ABT199 0.3125 uM): 557867
- inhibition rate (MGC-803 cells; ABT199 0.3125 uM): 0.2027 and 0.1767 and 0.1757 and 0.1522 and 0.1169 and 0.1408
- raw viability reading (MGC-803 cells; ABT199 0.3125 uM): 548000 and 563600 and 587100 and 571200 and 530000 and 547300
- average (raw viability reading) (MGC-803 cells; ABT199 0.625 uM): 500400
- inhibition rate (MGC-803 cells; ABT199 0.625 uM): 0.2793 and 0.2709 and 0.2616 and 0.2533 and 0.2176 and 0.2009
- raw viability reading (MGC-803 cells; ABT199 0.625 uM): 490900 and 496400 and 520100 and 531200 and 479100 and 484700
- average (raw viability reading) (MGC-803 cells; ABT199 1.25 uM): 506350
- inhibition rate (MGC-803 cells; ABT199 1.25 uM): 0.2765 and 0.2507 and 0.2473 and 0.2351 and 0.2002 and 0.2202
- raw viability reading (MGC-803 cells; ABT199 1.25 uM): 500400 and 508500 and 531700 and 518400 and 481000 and 498100
- average (raw viability reading) (MGC-803 cells; ABT199 2.5 uM): 356233
- inhibition rate (MGC-803 cells; ABT199 2.5 uM): 0.4666 and 0.4612 and 0.464 and 0.4702 and 0.4562
- raw viability reading (MGC-803 cells; ABT199 2.5 uM): 356300 and 352200 and 361500 and 354600 and 358200
- average (raw viability reading) (MGC-803 cells; ABT199 5 uM): 295000
- inhibition rate (MGC-803 cells; ABT199 5 uM): 0.6033 and 0.5602 and 0.5626 and 0.5469 and 0.5313 and 0.5332
- raw viability reading (MGC-803 cells; ABT199 5 uM): 290800 and 301200 and 311600 and 310300 and 263700 and 292400
- average (raw viability reading) (MGC-803 cells; ABT199 10 uM): 171300
- inhibition rate (MGC-803 cells; ABT199 10 uM): 0.7623 and 0.7504 and 0.748 and 0.7419 and 0.7262 and 0.725
- raw viability reading (MGC-803 cells; ABT199 10 uM): 167500 and 171600 and 182000 and 182800 and 158000 and 165900
- average (raw viability reading) (MGC-803 cells; ABT199 20 uM): 77771.7
- inhibition rate (MGC-803 cells; ABT199 20 uM): 0.8931 and 0.8865 and 0.8872 and 0.8828 and 0.8769 and 0.8715
- raw viability reading (MGC-803 cells; ABT199 20 uM): 75000 and 77910 and 81820 and 85400 and 71050 and 75450
- ΔΨm (ratio of red over green fluorescence, Q1/Q3) (Jurkat cells; 4 h treatment, JC-1, flow cytometry, n = 3): 0.1
- Relative ΔΨm by JC-1 fluorescence staining (microscopy) (Jurkat cells; 24 h treatment (Supplementary Fig. 13)): red fluorescence almost disappeared
- IC50 (El4 cells): 1700 ± 200 nM
